In ChEMBL document CHEMBL5316339, “Discovery of a Series of Substituted 1H-((1,2,3-Triazol-4-yl)methoxy)pyrimidines as Brain Penetrants and Potent GluN2B-Selective Negative Allosteric Modulators” (J Med Chem, 2023):
Converted amounts (≈) assume the structure as drawn. One block for each compound: values may come before it.

What was measured:
[1] = Solubility in aqueous buffer at pH 7; assay type: physicochemical
[2] = molecular target: Glutamate receptor ionotropic, NMDA 2B (Rattus norvegicus, UniProt Q00960); test: Displacement of 3-(3H) 1-(azetidin-1-yl)-2-(6- (4-fluoro-3-methyl-phenyl)pyrrolo-[…] pyridin-1yl)ethanone from GluN2B receptor in rat cortical membrane assessed as inhibition constant incubated for 2 hrs under shaking condition by liquid scintillator counter analysis; assay type: cell membranes, Cortex
[3] = Drug metabolism in rat liver microsomes assessed as hydroxylated metabolite (2-((1-(3-(difluoromethoxy)-4-fluorophenyl)-1H-1,2,3-triazol-4-yl)methoxy)pyrimidin-5-yl)methanol formation; assay type: ADME, Microsome
Hippocampus [4] = test: Ex vivo receptor occupancy at GluN2B receptor in Sprague-Dawley rat hippocampus administered orally and measured after 2 hrs by 3-[3H] 1-(azetidin- 1-yl-2[6-(4-fluoro-3-methyl-pheny)pyrrolo[3,2-b]pyridin-1-yl]ethanon based autoradiography; assay type: functional; settings: route po
[5] = Drug metabolism in human liver microsomes assessed as O-dearylation mediated metabolite formation; assay type: ADME, Microsome
[6] = Drug metabolism in human liver microsomes assessed as acid metabolite 2-((1-(3-(difluoromethoxy)-4-fluorophenyl)-1H-1,2,3-triazol-4-yl)methoxy)pyrimidine-5-carboxylic acid formation; assay type: ADME, Microsome
[7] = Drug metabolism in rat liver microsomes assessed as O-dearylation mediated metabolite formation; assay type: ADME, Microsome
[8] = Drug metabolism in rat liver microsomes assessed as acid metabolite 2-((1-(3-(difluoromethoxy)-4-fluorophenyl)-1H-1,2,3-triazol-4-yl)methoxy)pyrimidine-5-carboxylic acid formation; assay type: ADME, Microsome
MDR1 (P-gp) = test: Efflux ratio of apparent permeability from basolateral to apical side over apical to basolateral side in MDCK-MDR1 cells at 5 uM incubated for 60 mins by LC-MS/MS analysis; assay type: ADME, cell-based, Canis lupus familiaris; settings: dog
[9] = Metabolic stability in human liver microsomes assessed as extraction ratio; assay type: ADME, Microsome; settings: read-out: ERH
[10] = Drug metabolism in human liver microsomes assessed as hydroxylated metabolite (2-((1-(3-(difluoromethoxy)-4-fluorophenyl)-1H-1,2,3-triazol-4-yl)methoxy)pyrimidin-5-yl)methanol formation; assay type: ADME, Microsome
[11] = molecular target: Voltage-gated inwardly rectifying potassium channel KCNH2 (Homo sapiens, UniProt Q12809); test: Displacement of [3H]dofetilide from human ERG expressed in HEK293 cells; assay type: toxicity, cell-based
[12] = Solubility in aqueous buffer at pH 2; assay type: physicochemical
[13] = molecular target: Glutamate NMDA receptor; GRIN1/GRIN2B (Homo sapiens, UniProt Q05586+Q13224); test: Negative allosteric modulation of human GluN1A/GluN2B receptor expressed in T-REX-CHO cells preincubated for 5 mins followed by glutamate and glycine addition and measured after 5 mins by FLIPR assay; assay type: cell-based
[14] = Metabolic stability in rat liver microsomes assessed as extraction ratio; assay type: ADME, Microsome; settings: read-out: ERH
[15] = Cmax in Sprague-Dawley rat at 5 mg/kg, po measured for 24 hrs by LC-MS/MS analysis; assay type: ADME, organism-based; set-up: time 24 hrs, dose 5 mg/kg, route po; settings: in vivo
Cytochrome P450 2C19 = Cytochrome P450 2C19 (Homo sapiens, UniProt P33261); test: Inhibition of CYP2C19 in human liver microsomes incubated for 10 mins by LC-MS/MS analysis; assay type: ADME, Microsome
[16] = Plasma protein binding in Sprague-Dawley rat assessed as free fraction; assay type: ADME, cell-free
Cytochrome P450 2D6 = Cytochrome P450 2D6 (Homo sapiens, UniProt P10635); test: Inhibition of CYP2D6 in human liver microsomes incubated for 10 mins by LC-MS/MS analysis; assay type: ADME, Microsome
[17] = Oral bioavailability in Sprague-Dawley rat at 5 mg/kg measured for 24 hrs by LC-MS/MS analysis; assay type: ADME, organism-based; settings: in vivo
[18] = Thermodynamic solubility in aqueous phosphate buffer at pH 2; assay type: physicochemical; settings: read-out: Therm_solubility
[19] = Drug concentration in Sprague-Dawley rat plasma at 10 mg/kg, po measured after 0.5 hrs; assay type: ADME, organism-based
Cytochrome P450 1A2 = molecular target: T1, Cytochrome P450 1A2 (Homo sapiens, UniProt P05177); test: Inhibition of CYP1A2 in human liver microsomes incubated for 10 mins by LC-MS/MS analysis; assay type: ADME, Microsome
T1 sequence (P05177 whole entry): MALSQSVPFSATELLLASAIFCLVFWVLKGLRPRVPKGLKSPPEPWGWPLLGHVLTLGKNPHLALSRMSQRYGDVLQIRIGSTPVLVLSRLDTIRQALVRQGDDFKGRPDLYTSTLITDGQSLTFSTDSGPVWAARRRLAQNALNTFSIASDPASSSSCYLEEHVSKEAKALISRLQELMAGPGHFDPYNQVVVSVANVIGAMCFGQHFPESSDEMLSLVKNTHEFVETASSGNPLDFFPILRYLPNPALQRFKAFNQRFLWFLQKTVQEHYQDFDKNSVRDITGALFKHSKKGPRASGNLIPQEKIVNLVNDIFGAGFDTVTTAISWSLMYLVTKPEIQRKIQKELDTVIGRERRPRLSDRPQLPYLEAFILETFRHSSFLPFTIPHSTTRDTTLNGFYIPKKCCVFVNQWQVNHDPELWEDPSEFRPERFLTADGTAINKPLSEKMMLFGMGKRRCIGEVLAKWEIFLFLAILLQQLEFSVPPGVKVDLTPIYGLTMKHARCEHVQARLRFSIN

[20] = Unbound brain to plasma concentration ratio in Sprague-Dawley rat at 10 mg/kg, po measured after 2 hrs; assay type: ADME, organism-based; settings: brain and plasma, read-out: K(p,uu,brain)
[21] = Drug concentration in Sprague-Dawley rat brain assessed as free fraction; assay type: ADME, tissue-based
[22] = Drug concentration in Sprague-Dawley rat brain at 10 mg/kg, po measured after 0.5 hrs; assay type: ADME, organism-based; settings: read-out: Ct
[23] = Drug concentration in Sprague-Dawley rat plasma at 10 mg/kg, po measured after 2 hrs; assay type: ADME, organism-based
Brain [24] = test: Ex vivo receptor occupancy at GluN2B receptor in Sprague-Dawley rat brain at 10 mg/kg, po measured after 2 hrs by 3 [3H] 1-(azetidin- 1-yl-2[6-(4-fluoro-3-methyl-pheny)pyrrolo[3,2-b]pyridin-1-yl]ethanon based autoradiography relative to control; assay type: functional
[25] = Drug concentration in Sprague-Dawley rat brain at 10 mg/kg, po measured after 2 hrs; assay type: ADME, organism-based; settings: read-out: Ct
[26] = Thermodynamic solubility in aqueous phosphate buffer at pH 7; assay type: physicochemical; settings: read-out: Therm_solubility
Cytochrome P450 2C9 = Cytochrome P450 2C9 (Homo sapiens, UniProt P11712); test: Inhibition of CYP2C9 in human liver microsomes incubated for 10 mins by LC-MS/MS analysis; assay type: ADME, Microsome
Brain [27] = test: Ex vivo receptor occupancy at GluN2B receptor in Sprague-Dawley rat brain at 10 mg/kg, po measured after 6 hrs by 3 [3H] 1-(azetidin- 1-yl-2[6-(4-fluoro-3-methyl-pheny)pyrrolo[3,2-b]pyridin-1-yl]ethanon based autoradiography relative to control; assay type: functional
[28] = molecular target: Glutamate receptor ionotropic, NMDA 2A (Homo sapiens, UniProt Q05586+Q12879); test: Inhibition of human GluN2A receptor by FLIPR assay
Brain [29] = test: Ex vivo receptor occupancy at GluN2B receptor in Sprague-Dawley rat brain at 10 mg/kg, po measured after 0.5 hrs by 3 [3H] 1-(azetidin- 1-yl-2[6-(4-fluoro-3-methyl-pheny)pyrrolo[3,2-b]pyridin-1-yl]ethanon based autoradiography relative to control; assay type: functional
[30] = Volume of distribution at steady state in Sprague-Dawley rat at 5 mg/kg, po or 1 mg/kg, iv measured for 24 hrs by LC-MS/MS analysis; assay type: ADME, organism-based; settings: in vivo
Cytochrome P450 2C8 = molecular target: T2, Cytochrome P450 2C8 (Homo sapiens, UniProt P10632); test: Inhibition of CYP2C8 in human liver microsomes incubated for 10 mins by LC-MS/MS analysis; assay type: ADME, Microsome
T2 sequence (P10632 whole entry): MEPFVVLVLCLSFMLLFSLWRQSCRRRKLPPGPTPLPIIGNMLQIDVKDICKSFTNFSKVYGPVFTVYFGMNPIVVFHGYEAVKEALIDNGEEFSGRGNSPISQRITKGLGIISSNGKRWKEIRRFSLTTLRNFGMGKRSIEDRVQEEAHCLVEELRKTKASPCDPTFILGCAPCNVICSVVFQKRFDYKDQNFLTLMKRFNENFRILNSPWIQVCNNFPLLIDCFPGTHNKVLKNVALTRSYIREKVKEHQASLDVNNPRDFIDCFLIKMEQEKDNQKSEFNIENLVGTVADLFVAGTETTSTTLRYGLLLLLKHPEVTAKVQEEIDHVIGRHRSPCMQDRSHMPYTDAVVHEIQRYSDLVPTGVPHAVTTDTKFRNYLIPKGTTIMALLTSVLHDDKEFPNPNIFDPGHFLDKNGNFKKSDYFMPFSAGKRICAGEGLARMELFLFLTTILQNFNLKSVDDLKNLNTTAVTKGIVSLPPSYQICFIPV

[31] = molecular target: Glutamate receptor ionotropic, NMDA 2C (Homo sapiens, UniProt Q05586+Q14957); test: Inhibition of human GluN2C receptor by FLIPR assay
[32] = Unbound brain to plasma concentration ratio in Sprague-Dawley rat at 10 mg/kg, po measured after 0.5 hrs; assay type: ADME, organism-based; settings: brain and plasma, read-out: K(p,uu,brain)
Hippocampus [33] = test: Ex vivo receptor occupancy at GluN2B receptor in Sprague-Dawley rat hippocampus administered orally and measured after 0.5 hrs by 3-[3H] 1-(azetidin- 1-yl-2[6-(4-fluoro-3-methyl-pheny)pyrrolo[3,2-b]pyridin-1-yl]ethanon based autoradiography; assay type: functional; settings: route po
[34] = molecular target: Glutamate receptor ionotropic, NMDA 2D (Homo sapiens, UniProt O15399+Q05586); test: Inhibition of human GluN2D receptor by FLIPR assay
[35] = Drug concentration in Sprague-Dawley rat plasma at 10 mg/kg, po measured after 6 hrs; assay type: ADME, organism-based
Cytochrome P450 3A4 = Cytochrome P450 3A4 (Homo sapiens, UniProt P08684); test: Inhibition of CYP3A4 in human liver microsomes incubated for 10 mins by LC-MS/MS analysis; assay type: ADME, Microsome
Cytochrome P450 3A4, sequence (P08684 whole entry): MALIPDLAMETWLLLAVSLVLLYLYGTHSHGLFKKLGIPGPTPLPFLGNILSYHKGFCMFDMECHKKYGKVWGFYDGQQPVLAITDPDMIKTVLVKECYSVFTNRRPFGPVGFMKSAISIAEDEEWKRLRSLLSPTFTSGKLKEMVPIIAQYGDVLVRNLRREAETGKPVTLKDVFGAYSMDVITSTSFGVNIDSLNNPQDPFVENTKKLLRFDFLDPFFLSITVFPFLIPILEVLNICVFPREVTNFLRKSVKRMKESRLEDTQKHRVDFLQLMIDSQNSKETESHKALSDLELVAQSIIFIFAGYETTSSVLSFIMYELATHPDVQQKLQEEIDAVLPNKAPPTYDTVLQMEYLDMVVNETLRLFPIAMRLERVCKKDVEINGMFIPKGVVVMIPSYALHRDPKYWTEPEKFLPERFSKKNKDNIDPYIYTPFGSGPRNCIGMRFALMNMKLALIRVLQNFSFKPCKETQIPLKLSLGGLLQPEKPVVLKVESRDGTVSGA

Voltage-gated inwardly rectifying potassium channel KCNH2, sequence (Q12809 whole entry): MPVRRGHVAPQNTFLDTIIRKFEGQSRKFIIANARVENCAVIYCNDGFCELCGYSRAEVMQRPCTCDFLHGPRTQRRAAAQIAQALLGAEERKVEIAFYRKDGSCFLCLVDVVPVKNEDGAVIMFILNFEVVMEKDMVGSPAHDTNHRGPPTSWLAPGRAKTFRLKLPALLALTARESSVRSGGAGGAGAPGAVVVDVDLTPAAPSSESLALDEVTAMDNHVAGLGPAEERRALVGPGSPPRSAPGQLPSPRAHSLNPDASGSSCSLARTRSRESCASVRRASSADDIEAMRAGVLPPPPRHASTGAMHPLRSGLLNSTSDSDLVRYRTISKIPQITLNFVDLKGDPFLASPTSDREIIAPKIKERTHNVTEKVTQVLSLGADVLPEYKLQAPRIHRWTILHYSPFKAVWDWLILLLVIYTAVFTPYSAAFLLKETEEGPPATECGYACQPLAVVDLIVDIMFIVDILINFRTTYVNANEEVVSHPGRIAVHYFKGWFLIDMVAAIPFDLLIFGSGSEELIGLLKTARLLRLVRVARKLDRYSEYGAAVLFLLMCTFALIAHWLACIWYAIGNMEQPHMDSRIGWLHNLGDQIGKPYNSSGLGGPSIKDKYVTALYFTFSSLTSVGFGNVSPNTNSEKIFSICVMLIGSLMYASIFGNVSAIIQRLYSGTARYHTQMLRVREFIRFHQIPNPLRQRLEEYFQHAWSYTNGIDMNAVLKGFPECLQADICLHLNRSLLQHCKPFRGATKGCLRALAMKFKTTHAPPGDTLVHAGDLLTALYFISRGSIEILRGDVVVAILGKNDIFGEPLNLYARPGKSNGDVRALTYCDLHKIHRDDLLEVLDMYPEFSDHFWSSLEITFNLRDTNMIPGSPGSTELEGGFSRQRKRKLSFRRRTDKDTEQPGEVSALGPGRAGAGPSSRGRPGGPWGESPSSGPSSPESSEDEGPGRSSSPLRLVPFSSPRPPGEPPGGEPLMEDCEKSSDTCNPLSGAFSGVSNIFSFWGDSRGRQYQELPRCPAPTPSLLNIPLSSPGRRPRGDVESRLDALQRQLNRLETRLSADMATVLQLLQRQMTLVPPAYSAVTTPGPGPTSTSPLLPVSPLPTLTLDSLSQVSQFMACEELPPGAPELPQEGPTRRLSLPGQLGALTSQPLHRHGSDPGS
Glutamate receptor ionotropic, NMDA 2B, sequence (Q00960 whole entry): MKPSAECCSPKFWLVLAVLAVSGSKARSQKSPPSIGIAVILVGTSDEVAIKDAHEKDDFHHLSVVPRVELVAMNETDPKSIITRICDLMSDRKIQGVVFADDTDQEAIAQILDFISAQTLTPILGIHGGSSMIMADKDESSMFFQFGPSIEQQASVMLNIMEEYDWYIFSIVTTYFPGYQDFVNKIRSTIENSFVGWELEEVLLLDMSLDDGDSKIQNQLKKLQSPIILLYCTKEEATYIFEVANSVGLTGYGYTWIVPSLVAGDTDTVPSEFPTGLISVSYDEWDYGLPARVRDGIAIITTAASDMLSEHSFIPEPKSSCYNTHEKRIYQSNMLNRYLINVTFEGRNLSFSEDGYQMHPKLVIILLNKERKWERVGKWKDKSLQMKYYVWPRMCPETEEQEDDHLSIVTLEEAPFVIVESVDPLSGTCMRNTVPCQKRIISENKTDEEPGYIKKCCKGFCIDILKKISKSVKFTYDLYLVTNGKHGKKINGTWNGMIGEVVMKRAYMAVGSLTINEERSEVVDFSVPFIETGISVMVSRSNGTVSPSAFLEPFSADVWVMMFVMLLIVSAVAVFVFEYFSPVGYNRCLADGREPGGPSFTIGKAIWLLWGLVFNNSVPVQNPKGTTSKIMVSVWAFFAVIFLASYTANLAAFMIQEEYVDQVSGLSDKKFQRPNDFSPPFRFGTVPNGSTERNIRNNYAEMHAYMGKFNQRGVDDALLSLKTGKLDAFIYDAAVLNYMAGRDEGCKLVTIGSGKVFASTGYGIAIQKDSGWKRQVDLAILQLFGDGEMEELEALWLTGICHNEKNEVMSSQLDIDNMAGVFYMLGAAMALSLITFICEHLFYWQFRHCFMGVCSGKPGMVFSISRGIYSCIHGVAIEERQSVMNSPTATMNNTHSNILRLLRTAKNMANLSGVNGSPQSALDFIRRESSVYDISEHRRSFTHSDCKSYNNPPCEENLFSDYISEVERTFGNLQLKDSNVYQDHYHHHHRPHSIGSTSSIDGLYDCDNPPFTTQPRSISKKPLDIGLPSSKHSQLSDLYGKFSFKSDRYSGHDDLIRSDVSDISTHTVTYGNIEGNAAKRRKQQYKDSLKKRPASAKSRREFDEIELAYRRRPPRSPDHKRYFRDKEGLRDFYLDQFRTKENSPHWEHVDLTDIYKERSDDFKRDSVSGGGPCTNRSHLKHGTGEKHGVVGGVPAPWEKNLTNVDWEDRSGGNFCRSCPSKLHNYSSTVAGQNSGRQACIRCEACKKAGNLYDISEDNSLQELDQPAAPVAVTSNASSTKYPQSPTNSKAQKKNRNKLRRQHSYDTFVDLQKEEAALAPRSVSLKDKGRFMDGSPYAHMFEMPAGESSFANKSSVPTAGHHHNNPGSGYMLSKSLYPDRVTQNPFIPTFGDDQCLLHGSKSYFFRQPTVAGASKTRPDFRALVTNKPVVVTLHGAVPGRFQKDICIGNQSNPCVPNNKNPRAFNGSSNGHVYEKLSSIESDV
Glutamate receptor ionotropic, NMDA 2A, sequence (Q12879 whole entry, one chain of several): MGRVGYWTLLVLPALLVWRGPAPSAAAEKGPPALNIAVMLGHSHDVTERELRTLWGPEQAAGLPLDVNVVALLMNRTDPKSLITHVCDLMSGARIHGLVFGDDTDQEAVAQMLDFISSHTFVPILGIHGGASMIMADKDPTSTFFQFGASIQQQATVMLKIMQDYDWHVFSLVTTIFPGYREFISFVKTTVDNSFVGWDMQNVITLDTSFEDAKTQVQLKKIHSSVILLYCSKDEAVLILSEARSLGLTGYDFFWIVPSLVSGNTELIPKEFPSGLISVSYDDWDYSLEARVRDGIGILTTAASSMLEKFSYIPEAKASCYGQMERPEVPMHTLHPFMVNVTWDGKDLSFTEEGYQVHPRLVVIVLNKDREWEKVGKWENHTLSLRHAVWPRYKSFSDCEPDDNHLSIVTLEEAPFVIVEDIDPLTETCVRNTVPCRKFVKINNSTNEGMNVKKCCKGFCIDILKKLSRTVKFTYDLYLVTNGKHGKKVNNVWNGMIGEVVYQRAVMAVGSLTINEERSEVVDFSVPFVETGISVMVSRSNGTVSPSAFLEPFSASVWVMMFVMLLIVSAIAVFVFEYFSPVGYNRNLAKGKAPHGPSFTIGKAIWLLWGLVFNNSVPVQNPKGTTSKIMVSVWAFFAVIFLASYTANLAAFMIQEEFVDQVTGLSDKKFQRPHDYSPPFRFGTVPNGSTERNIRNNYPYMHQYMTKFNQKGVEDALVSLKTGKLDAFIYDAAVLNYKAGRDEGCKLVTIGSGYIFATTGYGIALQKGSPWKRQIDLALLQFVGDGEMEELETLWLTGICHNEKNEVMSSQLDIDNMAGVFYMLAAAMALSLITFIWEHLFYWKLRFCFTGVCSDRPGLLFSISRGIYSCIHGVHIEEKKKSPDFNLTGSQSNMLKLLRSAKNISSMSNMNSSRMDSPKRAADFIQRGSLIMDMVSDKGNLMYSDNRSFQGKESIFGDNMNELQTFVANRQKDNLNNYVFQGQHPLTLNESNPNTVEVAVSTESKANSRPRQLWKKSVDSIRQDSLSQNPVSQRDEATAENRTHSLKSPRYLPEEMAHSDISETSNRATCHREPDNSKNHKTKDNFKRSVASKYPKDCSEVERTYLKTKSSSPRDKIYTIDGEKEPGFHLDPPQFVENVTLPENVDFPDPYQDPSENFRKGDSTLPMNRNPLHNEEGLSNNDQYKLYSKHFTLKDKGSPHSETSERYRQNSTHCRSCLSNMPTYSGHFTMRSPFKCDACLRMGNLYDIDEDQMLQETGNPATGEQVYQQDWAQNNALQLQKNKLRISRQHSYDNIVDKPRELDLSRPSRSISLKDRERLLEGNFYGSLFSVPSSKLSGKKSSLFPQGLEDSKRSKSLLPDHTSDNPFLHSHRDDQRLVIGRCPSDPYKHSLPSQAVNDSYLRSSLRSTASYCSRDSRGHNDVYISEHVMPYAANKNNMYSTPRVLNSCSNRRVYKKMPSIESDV
Cytochrome P450 2C9, sequence (P11712 whole entry): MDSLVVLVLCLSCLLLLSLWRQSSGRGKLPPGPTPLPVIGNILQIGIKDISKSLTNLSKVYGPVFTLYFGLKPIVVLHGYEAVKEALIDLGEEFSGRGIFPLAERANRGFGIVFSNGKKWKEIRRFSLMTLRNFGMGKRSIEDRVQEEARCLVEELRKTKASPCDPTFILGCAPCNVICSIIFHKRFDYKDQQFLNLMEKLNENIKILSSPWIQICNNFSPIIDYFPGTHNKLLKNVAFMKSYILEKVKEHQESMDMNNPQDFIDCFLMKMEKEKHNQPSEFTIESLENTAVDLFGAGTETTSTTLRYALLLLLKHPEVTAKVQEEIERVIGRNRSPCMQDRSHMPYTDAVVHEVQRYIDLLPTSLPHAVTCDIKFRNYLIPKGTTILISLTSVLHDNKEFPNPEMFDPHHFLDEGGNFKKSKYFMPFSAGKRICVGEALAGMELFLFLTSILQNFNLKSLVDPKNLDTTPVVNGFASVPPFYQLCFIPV

solubility [1]: 7.6 µM (≈ 2.67 µg/mL)
Ki [2]: 0.0089 µM
Drug metabolism [3]: Metabolite_Detected
Drug metabolism [5]: Metabolite_Notdetected
Drug metabolism [6]: Metabolite_Detected
Drug metabolism [7]: Metabolite_Notdetected
Drug metabolism [8]: Metabolite_Detected
efflux ratio at 1 h, 5 µM (MDR1 (P-gp)): 0.8
hepatic extraction ratio [9]: 0.57
Drug metabolism [10]: Metabolite_Detected
solubility [12]: 7.6 µM (≈ 2.67 µg/mL)
IC50 [13]: 0.0035 µM
hepatic extraction ratio [14]: 0.37
Compound: Cc1cnc(OCc2cn(-c3ccc(F)c(OC(F)F)c3)nn2)nc1
ED50 (Hippocampus [4]): 1.7 mg/kg
IC50 [11]: > 10 µM

Cmax [15]: 1630 ng/mL
IC50 (Cytochrome P450 2C19): > 10 µM
Ki [2]: 0.032 µM
fraction unbound [16]: 0.0236
IC50 (Cytochrome P450 2D6): > 10 µM
bioavailability [17]: 42%
solubility thermodynamic [18]: 280 µM (≈ 107 µg/mL)
concentration at 0.5 h [19]: 1980 ng/mL
IC50 (Cytochrome P450 1A2): > 10 µM
Kp uu at 2 h [20]: 0.76
fraction unbound [21]: 0.0882
concentration at 0.5 h [22]: 340 ng/g
concentration at 2 h [23]: 235 ng/mL
efflux ratio at 1 h, 5 µM (MDR1 (P-gp)): 1.1
concentration at 2 h [25]: 47 ng/g
solubility thermodynamic [26]: 260 µM (≈ 99.1 µg/mL)
IC50 (Cytochrome P450 2C9): > 10 µM
hepatic extraction ratio [9]: 0.47
IC50 [28]: > 10 µM
Vdss [30]: 0.4 L/kg
IC50 (Cytochrome P450 2C8): > 10 µM
IC50 [31]: > 10 µM
Kp uu at 0.5 h [32]: 0.65
IC50 [34]: > 10 µM
concentration at 6 h [35]: 6.7 ng/mL
hepatic extraction ratio [14]: 0.6
IC50 (Cytochrome P450 3A4): > 10 µM
Compound: COCc1ccnc(OCc2cn(-c3ccc(F)c(OC(F)F)c3)nn2)n1
Occ (Brain [24]): 54%
Occ (Brain [27]): 8%
Occ (Brain [29]): 77%
IC50 [11]: > 10 µM
ED50 (Hippocampus [33]): 1.7 mg/kg
